Measured values published in PubChem BioAssay AID179 (DTP/NCI, 2004).
pEC50, pIC50: −log10 of the molar value. Where “and” joins values, the source holds several entries; their conditions need not be identical. Equal entries are not always repeated. Calls of active or inactive are those of the source.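 How the source made its calls: active means compounds giving half or more protection of infected cells from virus-caused growth loss, again on retest; inactive means the rest.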 Where a SMILES comes first, the peptide text is derived from it. [ ]: non-standard residue; d: D form. The star is where a group is joined. ξ: configuration not given here. ξF = NC(Cc1ccccc1)C(=O)O; Cbz = O=C(OCc1ccccc1)*

System: CEM cells HIV-1 protection, formazan growth assay
Experiment: NCI AIDS Antiviral Assay
Details: for pIC50: measured here: growth of uninfected CEM cells
In short: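 Human CEM cells, uninfected and HIV-1-infected, exposed to five drug concentrations; growth measured by soluble formazan assay and scored as percent protection from infection, with protecting compounds retested.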

Compound	pEC50	pIC50	outcome
Clc1ccc(OCc2nnc(CCCCCCCCc3nnc(COc4ccc(Cl)cc4)o3)o2)cc1	< 3.70	4.05	
O=C1C=CC(=C(c2ccc(O)cc2)c2ccc(O)cc2)C=C1			inactive
O=C(O)c1ccc(Sc2ccccc2)cc1	< 3.70	< 3.70	
CS/C(=N\N=C(/C)c1ccccn1)N1CCN(c2ccccn2)CC1	< 3.91	4.76	
CN(C)Cc1cc(N=Nc2cccc(Cl)c2)ccc1O	< 4.70	5.32	
c1ccc2sc(SN3CCOCC3)nc2c1	< 4.97	< 4.97	
Cc1ccc2c(c1)-c1c3c(nn1-c1ccccc1)-c1ccccc1SC3O2 (stereo not drawn)	< 5.41	< 5.41	
COc1cc2c3c(c1)nnn3C(=O)CCS2	< 3.70	< 3.70	
O=C(NC(=O)c1ccccc1)NC(=O)c1ccccc1	< 3.87	< 3.87	
O=C(O)c1ccccc1C(=O)NC(Cc1cccc(NP(=O)(N2CC2)N2CC2)c1)C(=O)O (stereo not drawn)	4.56	< 3.70	
COC(=O)c1cc([O-])c2sc(C)c(C)[n+]2n1	< 2.98	3.14	
O=c1[nH]c2nccn2c2c1SCCN2	< 3.70	< 3.70	
COC1(OC)C2(Cl)C(Cl)=C(Cl)C1(Cl)C1C(=O)C=CC(=O)C12 (stereo not drawn)	< 4.22	4.60	
Cc1occc1C(=S)Nc1ccc(Cl)c(/C=N/OC(C)C)c1	7.58	4.74	
COC(=O)/C=C/c1c(=O)c(C(=O)OC)cn2cnc3nc[nH]c3c12	< 4.30	< 4.30	
Cc1ccc(NC(=O)/C(CC(=O)c2sc(Nc3ccccc3Cl)nc2C)=N\Nc2ccc([N+](=O)[O-])cc2[N+](=O)[O-])c(C)c1	< 3.70	4.01	
CC1=Nc2ccccc2SC2(C1)C(C1COC(C)(C)O1)OC1OC(C)(C)OC12 (stereo not drawn)	< 4.13	4.20	
O=C(Nc1ccccc1)NC(CSSCC(NC(=O)Nc1ccccc1)C(=O)O)C(=O)O (stereo not drawn)	< 3.70	5.14	
CCOC(=O)CNC(=O)C(Cc1ccccc1)NC(=O)OCc1ccccc1 (stereo not drawn) (Cbz-[ξF]-Gly-OEt)	< 3.70	3.72	
N#Cc1c(N2CCCC2)nsc1Nc1ccc(F)cc1	< 3.70	< 3.70	
CCCCCCCCCc1cc(=O)c2ccc(O)cc2o1	< 5.72	< 5.72	
C=C(NC(=O)C(=C)NC(=O)c1ccc2c(n1)-c1coc(n1)C(=C)NC(=O)C(=C)NC(=O)c1nc(oc1C)C(=C)NC(=O)C(C(C)(C)O)NC(=O)C(=C)NC(=O)c1coc(n1)/C(=C/C)NC(=O)[C@H]([C@@H](C)O)NC(=O)c1csc-2n1)C(N)=O (stereo partly drawn)	< 4.00	< 4.00	

Compound	pEC50	pIC50	outcome
O=C(/C=C/c1ccccc1)CC(=O)CCC(=O)Nc1ccc(Cl)cc1			inactive
C=C(C)C1Cc2c(cc(O)c3c(=O)c4c(oc23)C(O)Oc2cc(OC)c(OC)cc2-4)O1 (stereo not drawn)	< 3.70	4.14	
CCCCCCCCCCCCCCCC(=O)OCC1OC(OC)C2NP(=O)(N(CCCl)CCCl)OC1C2O (stereo not drawn)	< 5.07	6.81	
Cc1ccccc1N(CCC#N)C1=NN(C(=O)CC(=O)Nc2ccc(Cl)cc2)C(c2ccccc2)C1 (stereo not drawn)	< 3.30	< 3.30	
O=[N+]([O-])c1nccn1CCC[n+]1ccccc1	< 3.70	< 3.70	
Clc1ccc(-c2cc3nc4ccccc4nc3o2)cc1	< 4.00	< 4.00	
C/C(=N/NC(=O)C[n+]1ccccc1)C(CN(CC(C)C)CC(C)C)C(=O)Nc1ccc(C)cc1C (stereo not drawn)	< 4.85	< 4.85	
O=C(Cn1c(=O)oc2ccc(C(=O)c3ccc(F)cc3)cc21)c1ccccc1	< 3.70	3.91	
O=[N+]([O-])c1ccc(-c2nc3c(o2)CCC3)cc1	< 3.70	3.71	
Cc1ccccc1NS(=O)(=O)c1c(N)ncn1C	< 3.08	< 3.08	
CN1c2ccccc2C2=C(C(=O)CCS2)S1(=O)=O	< 4.45	< 4.45	
C[N+](C)(C)CCS(=O)(=O)[O-]	< 3.70	< 3.70	
COc1ccc2c(c1)C(=O)c1ccc(OC)cc1C2=S			inactive
COc1nc2n[nH]nc2c(=O)[nH]1			inactive
C[CH2][Sn]1([CH2]C)[O]C(=O)[O][Sn]([CH2]C)([CH2]C)[O]1	< 5.08	5.65	
O=C(SC1=NCCN1)c1cccc2ccccc12	< 3.70	4.54	
O=C(N/C(=C\c1cc(Cl)ccc1Cl)c1nc2[nH]c(=S)[nH]c(=O)c2[nH]1)c1ccccc1	< 4.10	4.66	
COc1cc2c(c([N+](=O)[O-])c1)NC(=O)C(C)S2 (stereo not drawn)	< 3.70	4.31	
COc1cc(N=NN(C)C)c(C(C)c2c3cc(OC)c(OC)cc3cc[n+]2C)cc1OC (stereo not drawn)	< 3.70	4.68	
C/C(N)=C/C(=O)c1[nH]c(C(=O)O)cc1C1CCN(Cc2ccccc2)C1=O (stereo not drawn)	< 3.70	4.50	
O=Cc1ccc(-c2ccc(-c3ccc(CO)s3)o2)s1			inactive
CCOC(=O)C(C)c1nc2cc(F)c(N3CCOCC3)cc2[nH]c1=O (stereo not drawn)	< 3.70	4.02	

Compound	pEC50	pIC50	outcome
c1ccc(-c2cc3ccc4cccnc4c3o2)cc1	< 3.97	4.25	
Cc1cn(C2CC(S(=O)c3ccccc3)C(CO)O2)c(=O)[nH]c1=O (stereo not drawn)	< 3.70	< 3.70	
O=C(N1CCCC1)C1(c2cccc(Cl)c2)CCNCC1	< 3.70	3.89	
CC(=O)ON(OC(C)=O)c1ccc(C)cc1	< 3.70	< 3.70	
CC1=NN(C(=O)c2ccccc2O)C(=O)/C1=C/c1ccccc1O	< 4.51	7.21	
C(#CC1(Nc2ccccc2)CCN(Cc2ccccc2)CC1)C1(Nc2ccccc2)CCN(Cc2ccccc2)CC1	< 4.00	4.13	
CC(=O)NC(CC(C)C(=O)O)(C(=O)O)C(=O)O (stereo not drawn)	< 3.70	< 3.70	
CCN1CCC(C)OP1(=O)Cc1ccccc1 (stereo not drawn)	< 3.70	< 3.70	
CCOC(=O)C1=C(NC)OC/C1=N\NC(=O)c1ccccc1O	< 4.03	4.85	
O=C(NO)c1ccc(C(=O)NO)c(Br)c1			inactive
COc1cc2c(o1)C(=O)N1CCc3c([nH]c4ccccc34)C21 (stereo not drawn)	< 3.94	4.19	
CCCCCCCCCCC[N+]1(Cc2ccccc2)CC2CCN(Cc3ccccc3)CC2C1 (stereo not drawn)	< 5.70	6.63	
CCCCN(Cc1ccccc1)C(=NC#N)N(Cc1ccccc1)Cc1ccccc1	< 5.31	< 5.31	
O=C(O)c1ccc(CS(=O)(=O)c2ccccc2)cc1	< 3.04	< 3.04	
CCC(CC)(C(=O)O)C(=O)O	< 3.70	< 3.70	
N#Cc1ccc(CSC2=C(c3ccc(Cl)cc3)S/C(=C3\SC(SCc4ccc(C#N)cc4)=C(c4ccc(Cl)cc4)S3)S2)cc1	< 4.00	< 4.00	
Cc1cc(C)c2c(O)c(S(=O)(=O)c3ccc(Cl)cc3)c(=O)oc2c1	< 3.70	4.11	
Cc1c2c(Cl)c3c(c(Cl)c2c(C)c2c(Cl)c4c(c(Cl)c12)C(c1ccccc1)(c1ccccc1)C4(c1ccccc1)c1ccccc1)C(c1ccccc1)(c1ccccc1)C3(c1ccccc1)c1ccccc1	< 4.00	< 4.00	
C/C(=N\NC(=O)c1ccncc1)c1ccc(F)cc1	< 3.44	< 3.44	
CCOc1ccccc1N1CSc2nnc(-c3ccccc3)n2C1	< 3.83	4.08	
Cc1nc(N)sc1C(=O)Nc1ncn[nH]1	< 3.70	3.93	
COc1ccc(-c2cc(=O)c3c(O)cc(OC)cc3o2)cc1	4.15	4.13	

Compound	pEC50	pIC50	outcome
O=C1Cc2c(-c3ccccc3)cc(-c3ccccc3)nc2-c2ccccc2N1	< 3.70	5.21	
COc1c(O)c2ccccc2c2cc(O)ccc12	< 2.98	5.28	
Cc1nn(-c2ccccc2)c2c1N=C(C(=O)O)CC(c1ccccc1)=N2	< 3.70	4.04	
COC(=O)C(C(=O)C(=O)Nc1c(Cl)cc([N+](=O)[O-])cc1Cl)c1nc2cc(C)c(C)cc2[nH]c1=O (stereo not drawn)	< 4.01	< 4.01	
CC(=O)Oc1cccc2c1C(=O)C(Br)(Br)CCC2			inactive
CC/C(N)=N\NC(=O)OC(C)(C)C	< 3.70	< 3.70	
COC(=O)C1ON2C(C1C(=O)OC)C(C)(C)N(O)C2(C)C (stereo not drawn)	< 3.70	< 3.70	
CCSC(=O)n1ncc2cc(Cl)ccc21	< 3.70	4.52	
O=c1[nH]c2ccccc2c(O)c1/C=N/C(=S)NCc1ccccc1	< 3.70	< 3.70	
NC(=O)c1sc2nc3ccccc3n2c1N	< 3.70	< 3.70	
C=C(C)COC(=O)C1C2CC(C3OC23)C1C(=O)OCC(=C)C (stereo not drawn)	< 3.70	3.95	
Cc1ccc(C2=Nc3c(N)nc(N)nc3NC(c3ccccc3)C2)cc1 (stereo not drawn)	< 3.70	5.37 and 5.43	
N#Cc1cccc(C2C(=O)c3ccc(C(=O)c4ccc5c(c4)C(=O)N(c4ccc(Oc6ccc(N7C(=O)c8ccc(C(=O)c9ccc%10c(c9)C(=O)N(c9cccc(C#N)c9)C%10=O)cc8C7=O)cc6)cc4)C5=O)cc3C2=O)c1 (stereo not drawn)	< 5.46	< 5.46	
COC(=O)C1N=CSCC1(C)O (stereo not drawn)	< 2.88	3.73	
Cc1cc(=O)[nH]c2[nH][nH]c(=O)c12			inactive
CNC(=O)C(C)NC(=O)C(Cc1ccccc1)NC(=O)OC(C)(C)C (stereo not drawn)	< 3.70	< 3.70	
CCCCc1c2c(nc3c1CCCC3=O)C(=O)CCC2	< 5.27	< 5.27	
O=C(NS(=O)(=O)Nc1ccccc1)OCC1CCCCC1	< 3.70	3.87	
Clc1ccc2sc(-n3ccc4ccccc43)nc2c1	< 3.70	3.77	
CC(=O)c1cc(N=Nc2ccc(/C=C/c3ccc(N=Nc4cc(O)c5ncccc5c4C(C)=O)cc3S(=O)(=O)O)c(S(=O)(=O)O)c2)c(O)c2ncccc12	< 4.53	4.54	
CN(C)CCCNc1nnc(NCCCN(C)C)c2c(=O)c3sccc3[nH]c12	< 4.70	5.57	
COC(=O)C1C/C(=C/N(C)C)C(=S)N1 (stereo not drawn)	< 3.70	< 3.70	
